Tests used:
H322 = test: Therapeutic effect of cancer cell line, IC50; type: cell-based; conditions: NCI-H322; H322, NAPRT expression negative
[1] = Microsome stability evaluation; type: in vitro ADME, human; conditions: after 30 minutes, 1 μM compound, 0.3 mg/ml microsomal protein, 1 mM NADPH
Description: (§1) Metabolic stability was assessed using human liver microsomes and mouse liver microsomes. Specifically, pooled male mouse liver microsomes (in-house preparation per SOP), pooled human liver microsomes (XENOTECH; […] The reaction was stopped by addition of acetonitrile ([…]) containing the same volume of internal standard. The precipitated proteins were removed by centrifugation and the supernatant was analyzed by LC/MS-MS method. […] Residual % parent compound=(peak area at time x/peak area at TO)×100.

[2] = Microsome stability evaluation; type: in vitro ADME, mouse; conditions: after 30 minutes, 1 μM compound, 0.3 mg/ml microsomal protein, 1 mM NADPH
Description: as §1

H661 = test: Therapeutic effect of cancer cell line, IC50; type: cell-based; conditions: Homo sapiens, NCI-H661; H661, NAPRT expression negative
H1115 = test: Therapeutic effect of cancer cell line, IC50; type: cell-based; conditions: H1115, NAPRT expression negative
[3] = tested on: H322, H661, H1155, H1993, H1975, H2030, H1299, H2122 and HBEC30; test: Viability of various cancer cell lines by concentration (NAPRT positive vs negative); type: cell-based
Primary cardiomyocyte = test: Toxicity assessment in normal cell line, cell viability; type: cell-based; conditions: high concentrations
[4] = tested on: retinal pigment epithelium cell (RPE); test: as above; type: cell-based; conditions: high concentrations
liver cell (THLE-2) = test: as above; type: cell-based; conditions: for IC50: Homo sapiens, THLE-2, FIG. 25
liver cell (THLE-3) = test: Toxicity evaluation in normal cell line, cell viability; type: cell-based; conditions: THLE3; THLE-3, FIG. 26

COC(=O)c1ccc(CCNC(=O)c2ccc3nccn3c2)cc1 [B1531]
IC50 (H322): 6.25 µM

Cc1ccc(-c2nc3cc(NC(=O)c4cccnc4)ccc3o2)cc1C [B1716]
IC50 (H322): 12.5 µM

O=C(NCCNC(=O)c1nc(-c2ccc(Cl)cc2)no1)c1cccnc1 [B1856]
IC50 (H322): 12.5 µM

Cc1ccc(-c2noc(C(=O)NCCNC(=O)c3cccnc3)n2)cc1 [B1857]
IC50 (H322): 10 µM

O=C(NCCNC(=O)c1nc(-c2cccs2)no1)c1cccnc1 [B1863]
IC50 (H322): 12.5 µM

COc1ccc(-c2noc(C(=O)NCCNC(=O)c3cccnc3)n2)cc1 [B1866]
IC50 (H322): 10 µM

O=C(NCCNC(=O)c1ccc2ccccc2n1)c1cccnc1 [B1872]
IC50 (H322): 10 µM

O=C(NCCNC(=O)c1nc2ccccc2s1)c1cccnc1 [B1873]
IC50 (H322): 5 µM

O=C(Nc1ccc2c(c1)CN(C(=O)/C=C/c1cccnc1)CC2)c1ccncc1 [B1963]
IC50 (H322): 0.39 µM

CC(C)c1cc(C(F)(F)F)n2nc([C@H]3CCN(C(=O)/C=C/c4cccnc4)C3)cc2n1 [B1964]
IC50 (H322): 0.2 µM

Cc1nccn1-c1ccc(CNC(=O)c2cccnc2)cc1 [B1967]
IC50 (H322): 12.5 µM

O=C(/C=C/c1cccnc1)NCCCN1CCc2ccccc21 [B1975]
IC50 (H322): 1.2 µM

O=C(/C=C/c1cccnc1)N1CCN(Cc2csc(-c3ccco3)n2)CC1 [B1976]
IC50 (H322): 10 µM

O=C(NCc1ccc(S(=O)(=O)N2CCOCC2)cc1)c1cccnc1 [B1977]
IC50 (H322): 6.25 µM

O=C(NCc1ccc(N2CCCCC2)cc1)c1cccnc1 [B1978]
IC50 (H322): 1.2 µM

O=C(NCc1ccc(OCc2ccccn2)cc1)c1cccnc1 [B1979]
IC50 (H322): 0.78 µM

O=C(NCc1ccc(S(=O)(=O)N2CCCCC2)cc1)c1cccnc1 [B1981]
IC50 (H322): 3.1 µM

CCN(CC)Cc1ccc(CNC(=O)c2cccnc2)cc1 [B1982]
IC50 (H322): 12 µM

Cn1/c(=N/NC(=O)/C=C/c2cccnc2)sc2ccccc21 [B1983]
IC50 (H322): 0.3 µM

O=C1CC2(CCCC2)CC(=O)N1CCCCN1CCN(c2ncccn2)CC1 [Buspirone, reference compound]
Human(%) parent compound remaining [1]: 0.101 ± 0.028% | Mouse(%) parent compound remaining [2]: 3.189 ± 1.078%

CCc1ccc2oc(-c3ccc(CNC(=O)c4cccnc4)cc3)nc2c1 [Drug3, N-(4-(5-ethylbenzo[d]oxazol-2-yl)benzyl)nicotinamide]
IC50 (H322): 1 µM | IC50 (H661): < 1 µM | IC50 (H1115): < 3.1 µM

O=C(/C=C/c1cccnc1)NCCCCC1CCN(C(=O)c2ccccc2)CC1 [FK866, N-[4-(1-benzoyl-4-piperidinyl)butyl]-3-(3-pyridinyl)-2E-propenamide]
difference in LD50 values between the NAPRT positive cell line and the negative cell line [3]: approximately 10 times | cytotoxicity (cell viability) (Primary cardiomyocyte): unpredictable cytotoxicity | cytotoxicity (cell viability) [4]: unpredictable cytotoxicity | IC50 (liver cell (THLE-2)): ~0.05 µM | cytotoxicity (cell viability) (liver cell (THLE-2); THLE-2, high concentrations): unpredictable cytotoxicity | IC50 (liver cell (THLE-3)): ~0.05 µM | Human(%) parent compound remaining [1]: 25.48 ± 1.45% | Mouse(%) parent compound remaining [2]: 10.26 ± 0.91%

O=C(NCc1ccc(S(=O)(=O)c2cc(F)cc(F)c2)cc1)c1ccc2nccn2c1 [GNE617, N-(4-((3,5-difluorophenyl)sulfonyl)benzyl)imidazo[1,2-a]pyridine-6-carboxamide, reference compound]
IC50 (liver cell (THLE-2)): ~0.05 µM | IC50 (liver cell (THLE-3)): ~0.05 µM
